Measured values published in paper PMC5216056 (Nature Communications, 2017).
“And” between values parts separate entries of the source, which are not always exact repeats. Identical values can stand only once. “Also recorded” adds a separate entry of the source. Like-named read-outs stand apart in the source and are kept apart here.

Legend:
FAAH = biological target: T1, FAAH (Homo sapiens, UniProt O00519); assay: FAAH activity, U937 cell homogenate; type: biochemical; details: for inhibition at 5 µM: read-out: FAAH % inhibition at 5 µM
T1 construct: host or cells: U937
T1 sequence (O00519 1-579): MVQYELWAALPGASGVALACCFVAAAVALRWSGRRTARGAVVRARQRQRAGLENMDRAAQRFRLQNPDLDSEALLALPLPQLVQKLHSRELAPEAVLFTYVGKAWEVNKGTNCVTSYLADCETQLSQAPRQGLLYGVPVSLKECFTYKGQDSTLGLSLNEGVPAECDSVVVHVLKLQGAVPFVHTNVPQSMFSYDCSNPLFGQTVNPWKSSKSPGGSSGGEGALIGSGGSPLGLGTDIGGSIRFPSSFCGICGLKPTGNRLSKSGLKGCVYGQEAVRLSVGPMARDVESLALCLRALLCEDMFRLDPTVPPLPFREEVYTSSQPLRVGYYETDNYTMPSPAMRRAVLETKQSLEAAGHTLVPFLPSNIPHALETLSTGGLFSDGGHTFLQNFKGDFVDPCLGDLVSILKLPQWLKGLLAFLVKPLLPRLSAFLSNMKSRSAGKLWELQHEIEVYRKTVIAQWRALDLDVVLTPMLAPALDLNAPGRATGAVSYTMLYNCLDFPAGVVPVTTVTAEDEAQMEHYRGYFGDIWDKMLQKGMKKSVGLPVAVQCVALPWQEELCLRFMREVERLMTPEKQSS
Method: FAAH activity was assessed using U937 cell homogenate (source: U937 cells were purchased from ATCC, Manassas, VA, USA). Tested compounds (at the concentrations of 1 and 5 μM) or solvent (≤1% of the final volume) were pre-incubated at 37 °C for 30 min with 100 μg of cell homogenate diluted in assay buffer (10 mM Tris-HCl and 1 mM EDTA, pH 7.6 and 1% w/v fatty acid-free BSA). Successively, a mixture of 99.5 nM […] of AEA and 0.5 nM of [ethanolamine-1-3H]-AEA (40–60 Ci mmol^−1) was added to the homogenate (final concentration of 100 nM) and incubated for 10 min at 37 °C under shaking. After the incubation time, 2 volumes of an ice-cold methanol: chloroform mixture 1:1 (v/v) were added to each sample, vigorously vortexed and centrifuged at 10,000g for 10 min at 4 °C to separate aqueous and organic phases. The aqueous phases were collected and the radioactivity associated with the hydrolysis product [3H]-ethanolamine was measured after addition of 3 ml of scintillation cocktail using the Tri-Carb 2100 TR scintillation counter. Data were collected from three independent experiments performed in triplicate and results were expressed as FAAH activity, relative to that in vehicle-treated samples (=100%).

[1] = test system: sigma (non-selective) (h); type: binding, human; details: 10 µM
mCB2R [2] = biological target: T2, mCB2R (Mus musculus, UniProt P47936); assay: PathHunter β-arrestin recruitment assay; type: cell-based; details: for Emax: read-out: Emax ± SEM β-AR recruitment mCB2R; for Emax ± SEM β-AR recruitment mCB2R: normalized to 10 µM CP55940
T2 sequence (P47936 whole entry): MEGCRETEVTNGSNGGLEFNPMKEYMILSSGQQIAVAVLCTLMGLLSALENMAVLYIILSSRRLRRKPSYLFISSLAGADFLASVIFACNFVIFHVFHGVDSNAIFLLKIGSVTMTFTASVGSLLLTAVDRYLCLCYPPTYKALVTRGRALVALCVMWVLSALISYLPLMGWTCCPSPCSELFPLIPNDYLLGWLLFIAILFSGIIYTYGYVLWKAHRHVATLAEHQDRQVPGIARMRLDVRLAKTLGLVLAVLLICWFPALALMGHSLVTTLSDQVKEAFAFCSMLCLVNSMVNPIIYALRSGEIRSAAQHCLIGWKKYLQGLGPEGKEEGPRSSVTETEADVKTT

mCB2R [3] = biological target: T2, mCB2R; assay: [35S]GTPγS assay; type: biochemical; design: from tissue; host or cells: spleen of male C57BL/6J mice; details: for Emax: read-out: Emax ± SEM GTPγS mCB2R; for Emax ± SEM GTPγS mCB2R: normalized to 10 µM CP55940
C57BL6/J mice = assay: Triad assay: antinociception; type: in vivo, mouse; details: for antinociception, cannabimimetic effect: 1-100 mg kg^−1 i.p., cumulative, mice
B2 (h) = biological target: T3, B2 (h) (Homo sapiens, UniProt P30411); assay: CEREP panel; type: binding; details: for % inhibition B2 (h): 10 µM
T3 construct: CEREP
T3 sequence (P30411 1-391): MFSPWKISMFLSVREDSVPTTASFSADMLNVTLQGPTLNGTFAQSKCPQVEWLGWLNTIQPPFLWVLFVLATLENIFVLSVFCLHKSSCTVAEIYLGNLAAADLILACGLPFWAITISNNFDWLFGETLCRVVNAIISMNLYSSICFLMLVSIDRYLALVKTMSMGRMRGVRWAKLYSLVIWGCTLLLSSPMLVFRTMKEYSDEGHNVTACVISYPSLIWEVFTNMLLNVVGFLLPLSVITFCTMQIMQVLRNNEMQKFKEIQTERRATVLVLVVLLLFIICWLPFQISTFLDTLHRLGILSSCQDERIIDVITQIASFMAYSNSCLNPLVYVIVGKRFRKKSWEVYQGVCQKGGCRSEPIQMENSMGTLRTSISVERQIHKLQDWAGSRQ

BB = assay: CEREP panel; type: binding; details: 10 µM
[4] = test system: Ca2+ channel (verapamil site); assay: CEREP panel; type: binding; details: 10 µM
NK1 (h) = biological target: T4, NK1 (h) (Homo sapiens, UniProt P25103); assay: CEREP panel; type: binding; details: for % inhibition NK1 (h): 10 µM
T4 construct: CEREP (contract assay)
T4 sequence (P25103 whole entry): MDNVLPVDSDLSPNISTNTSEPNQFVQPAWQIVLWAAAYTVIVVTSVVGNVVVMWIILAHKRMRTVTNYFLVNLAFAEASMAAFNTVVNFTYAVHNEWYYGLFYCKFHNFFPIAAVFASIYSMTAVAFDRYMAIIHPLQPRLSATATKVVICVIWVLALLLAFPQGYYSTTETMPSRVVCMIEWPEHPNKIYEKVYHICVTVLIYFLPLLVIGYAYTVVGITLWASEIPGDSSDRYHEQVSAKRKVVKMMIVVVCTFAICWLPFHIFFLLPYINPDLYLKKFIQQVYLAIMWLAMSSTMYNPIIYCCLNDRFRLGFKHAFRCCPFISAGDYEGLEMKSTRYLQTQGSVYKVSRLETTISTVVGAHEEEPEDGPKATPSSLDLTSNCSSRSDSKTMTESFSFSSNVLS

NK3 (h) = biological target: T5, NK3 (h) (Homo sapiens, UniProt P29371); assay: CEREP panel; type: binding; details: for % inhibition NK3 (h): 10 µM
T5 construct: CEREP (contract assay)
T5 sequence (P29371 1-465): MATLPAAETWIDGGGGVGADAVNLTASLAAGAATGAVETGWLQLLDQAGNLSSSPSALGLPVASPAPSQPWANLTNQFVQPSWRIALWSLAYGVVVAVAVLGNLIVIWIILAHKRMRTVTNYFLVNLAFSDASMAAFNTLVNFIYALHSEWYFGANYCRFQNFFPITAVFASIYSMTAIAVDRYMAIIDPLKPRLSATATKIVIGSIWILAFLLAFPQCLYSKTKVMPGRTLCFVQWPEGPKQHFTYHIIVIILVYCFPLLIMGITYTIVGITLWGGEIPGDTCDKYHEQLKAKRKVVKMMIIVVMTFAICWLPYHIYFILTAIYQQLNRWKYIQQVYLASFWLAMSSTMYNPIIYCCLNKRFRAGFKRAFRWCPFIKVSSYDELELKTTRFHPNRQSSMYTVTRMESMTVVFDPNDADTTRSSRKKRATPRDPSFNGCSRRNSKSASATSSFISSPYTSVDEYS

NOP (ORL1) (h) = biological target: T6, NOP (ORL1) (h) (Homo sapiens, UniProt P41146); assay: CEREP panel; type: binding; details: for % inhibition NOP (ORL1) (h): 10 µM
T6 construct: CEREP (contract assay)
T6 sequence (P41146 whole entry): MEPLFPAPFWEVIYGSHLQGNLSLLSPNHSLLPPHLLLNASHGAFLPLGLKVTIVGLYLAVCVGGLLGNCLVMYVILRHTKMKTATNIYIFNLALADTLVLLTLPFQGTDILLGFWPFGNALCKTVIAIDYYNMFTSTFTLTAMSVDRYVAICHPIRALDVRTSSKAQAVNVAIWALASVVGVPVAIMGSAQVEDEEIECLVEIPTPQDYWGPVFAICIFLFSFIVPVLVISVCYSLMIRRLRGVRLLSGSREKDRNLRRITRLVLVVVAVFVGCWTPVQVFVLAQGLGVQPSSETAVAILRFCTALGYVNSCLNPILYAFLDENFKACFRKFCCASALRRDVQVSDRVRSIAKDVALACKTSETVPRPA

Structure (SMILES): CN1CCCC[C@@H]1Cn1cc(C(=O)c2cc([N+](=O)[O-])ccc2I)c2ccccc21 [(R)-AM1241]
- FAAH % inhibition at 5 µM (FAAH; 5 µM, U937 cell homogenate): < 25%

Structure (SMILES): CN1CCCC[C@H]1Cn1cc(C(=O)c2cc([N+](=O)[O-])ccc2I)c2ccccc21 [(S)-AM1241]
- FAAH % inhibition at 5 µM (FAAH; 5 µM, U937 cell homogenate): < 25%
- % inhibition sigma (non-selective) (h) [1]: 101%

Structure (SMILES): Cc1c(C(=O)NN2CCCCC2)nn(-c2ccc(Cl)cc2Cl)c1-c1ccc(I)cc1 [AM251]
- FAAH % inhibition at 5 µM (FAAH; 5 µM, U937 cell homogenate): < 50% and 30–40%

Structure (SMILES): CCCCCCC(C)(C)c1ccc([C@@H]2C[C@H](O)CC[C@H]2CCCO)c(O)c1 [CP55940]
- EC50 (mCB2R [2]): 9.55 nM
- Emax (mCB2R [2]): 96 ± 1%
- EC50 (mCB2R [3]): 16.2 nM
- Emax (mCB2R [3]): 102 ± 1%

Structure (SMILES): Cc1ccc2c(c1)Cc1c(C(=O)NN3CCCCC3)nn(-c3ccc(Cl)cc3Cl)c1-2 [Gp-1a]
- FAAH % inhibition at 5 µM (FAAH; 5 µM, U937 cell homogenate): < 50% and 30–40%
- % inhibition sigma (non-selective) (h) [1]: 51%

Structure (SMILES): CCCCCCC(C)(C)c1cc(OC)c([C@@H]2C=C(CO)[C@@H]3C[C@H]2C3(C)C)c(OC)c1 [HU308]
- EC50 (mCB2R [2]): 339 nM
- Emax (mCB2R [2]): 69 ± 3%
- inhibition at 5 µM (FAAH): < 25%
- antinociception, cannabimimetic effect (C57BL6/J mice): did not produce detectable; also recorded: lacked appreciable pharmacological effects
- inhibition at 10 µM (B2 (h); read-out: % inhibition B2 (h)): -21%
- % inhibition BB (BB): 3%
- % inhibition Ca2+ channel (verapamil site) [4]: 3%
- inhibition at 10 µM (NK1 (h); read-out: % inhibition NK1 (h)): 29%
- inhibition at 10 µM (NK3 (h); read-out: % inhibition NK3 (h)): 13%
- inhibition at 10 µM (NOP (ORL1) (h); read-out: % inhibition NOP (ORL1) (h)): -5%
- EC50 (mCB2R [3]): 148 nM
- Emax (mCB2R [3]): 96 ± 3%

Structure (SMILES): CCCCCCC(C)(C)c1cc(OC)c(C2=C[C@H]3CC[C@]2(CO)C3(C)C)c(OC)c1 [HU910]
- pEC50 ± SEM β-AR recruitment mCB2R (mCB2R [2]): 6.78 ± 0.16
- Emax ± SEM β-AR recruitment mCB2R (mCB2R [2]): 66 ± 1%
- FAAH % inhibition at 5 µM (FAAH; 5 µM, U937 cell homogenate): < 25%
- antinociception, cannabimimetic effect (C57BL6/J mice): did not produce detectable; also recorded: lacked appreciable pharmacological effects
- antagonism of HU210-induced antinociception (C57BL6/J mice; pretreatment (SR141716A 3 mg kg^−1, HU910 30 mg kg^−1) before HU210 1.7 mg kg^−1): did not significantly reduce
- % inhibition B2 (h) (B2 (h)): -39%
- % inhibition BB (BB): 18%
- % inhibition Ca2+ channel (verapamil site) [4]: 7%
- % inhibition NK1 (h) (NK1 (h)): 42%
- % inhibition NK3 (h) (NK3 (h)): 24%
- % inhibition NOP (ORL1) (h) (NOP (ORL1) (h)): 4%
- pEC50 ± SEM GTPγS mCB2R (mCB2R [3]): 7.27 ± 0.08
- Emax ± SEM GTPγS mCB2R (mCB2R [3]): 78 ± 4%

Structure (SMILES): CCCC(C)(C)c1ccc2c(c1)OC(C)(C)[C@@H]1CC=C(C)C[C@@H]21 [JWH133]
- pEC50 ± SEM β-AR recruitment mCB2R (mCB2R [2]): 6.80 ± 0.17
- Emax ± SEM β-AR recruitment mCB2R (mCB2R [2]): 63 ± 7%
- antinociception, cannabimimetic effect (C57BL6/J mice): did not produce detectable; also recorded: lacked appreciable pharmacological effects
- % inhibition B2 (h) (B2 (h)): -2%
- % inhibition BB (BB): 0%
- % inhibition Ca2+ channel (verapamil site) [4]: 1%
- % inhibition NK1 (h) (NK1 (h)): 13%
- % inhibition NK3 (h) (NK3 (h)): -1%
- % inhibition NOP (ORL1) (h) (NOP (ORL1) (h)): -5%
- % inhibition sigma (non-selective) (h) [1]: 2%
- pEC50 ± SEM GTPγS mCB2R (mCB2R [3]): 7.03 ± 0.14
- Emax ± SEM GTPγS mCB2R (mCB2R [3]): 103 ± 7%

Structure (SMILES): Cc1c(C(=O)NN2CCCCC2)nn(-c2ccc(Cl)cc2Cl)c1-c1ccc(Cl)cc1 [SR141716A]
- inhibition at 5 µM (FAAH; 5 µM, U937 cell homogenate): < 25%
- antagonism of HU210-induced antinociception (C57BL6/J mice; mouse, in vivo): attenuated; also recorded: significantly antagonized

Structure (SMILES): Cc1c(C(=O)c2cccc3ccccc23)c2cccc3c2n1[C@H](CN1CCOCC1)CO3 [WIN55212-2]
- FAAH % inhibition at 5 µM (FAAH; 5 µM, U937 cell homogenate): < 25%
